The record followed here is patent publication US20240280561A1, “COMPOSITIONS AND METHODS FOR TREATING AND/OR IDENTIFYING AN AGENT FOR TREATING INTESTINAL CANCERS” (Dana-Farber Cancer Institute, Inc., priority 2022, published 2024).

Assay [1] has as its system SOX9 expression in HT-115 cells. The assay can be described thus: SOX9 protein expression in CRC cells treated with WNT and TGF-β pathway agents (immunoblot). It is filed as cell-based, human. To be noted: CRC cells (HT-115). The source says:
AXIN2, SOX9 and […] (loading control) protein expression in HT-115 (Apc Mutant) cells treated with DMSO, rWNT3A or indicated concentrations of WNT-inhibitor ICG-001 by immunoblot (middle panel). SOX9 and β-actin (loading control) protein expression in HT-115 cells expressing GFP or dominant-negative (dn) TCF4 (right panel); S.E.=short exposure, L.E.=long exposure. […] Protein expression of SOX9 and β-actin (loading control) in HT-115 cells treated with indicated concentration of rTGF-β or TGF-β inhibitor.
Immunoblot analysis was performed as previously described (Wong et al. (2018) Nature medicine 24: 968-977). Briefly, cells were lysed in RIPA buffer supplemented with a protease inhibitor cocktail (Roche). Whole cell extracts were resolved by SDS-PAGE, transferred to PVDF membranes, and probed with indicated primary antibodies. Bound antibodies were detected with horseradish peroxidase (HRP)-conjugated secondary antibodies and chemiluminescent HRP substrate.
The following agents were used: recombinant WNT3A as a Wnt activator and ICG-001 as a Wnt pathway inhibitor, all of which were employed at indicated concentrations and durations.
To examine whether SOX9 is regulated by stem cell and differentiation cues, the impact of the WNT and BMP/TGF-β signaling pathways on SOX9 expression, respectively, was evaluated. […]

For assay [2], the system named is PROM1 intronic enhancer reporter in HEK293T cells. The assay can be described thus: PROM1 enhancer GFP reporter assay. In kind it is cell-based. To be noted: GFP reporter transiently transfected into HEK293T cells. The source says: A 537-bp region in intron 1 of PROM1 (hg19, ch4:[…], negative strand) was identified as a putative SOX9-regulated enhancer based on V5-SOX9 and H3K27Ac CHIP data. PCR-amplified products or gene blocks (gBlocks, IDT) consisting of the putative PROM1 enhancer, a minimal promoter, eGFP, and PGK-hygromycin resistance cassette was cloned into the lentiviral LV 1-5 backbone vector using Gibson modular assembly platform (Akama-Garren et al. (2016) Sci Rep 6: 16836). Briefly, PROM1 enhancer was generated as a gBlock by adding the following primer sequencing to the 5′ and 3′ end of the 537-bp region, respectively: 5′→3′ Forward (site 1), […] and 5′→3′ Reverse, […] (site 2); the minimal promoter was PCR amplified from the 7TFP WT CDH1 reporter plasmid using the following primer sequences: 5′→3′ Forward (includes site 2), […] and 5′→3′ Reverse, AGGCCTCGGGATTcctagg[…] (includes site 3); eGFP was generated by adding the following primer sequences to the 5′ and 3′ end, respectively: 5′→3′ Forward (site 3), AAACCGCTGTTcctaggAATCCCGAGGCCT and 5′→3′ Reverse, GACCCGACATTagcgctACAGCTTAAGCGG (site 4); and PGK-hygro was PCR amplified from plenti-PGK-hygro-gateway destination vector using the following primers: 5′→3′ Forward (includes site 4), GACCCGACATTagcgct[…] […]
To investigate the precise mechanism of PROM1 activation, V5-SOX9 and H3K27Ac CHIP-seq data were analyzed. […]
(A reporter such as luciferase makes a cellular process visible.)

`O=C1[C@H](Cc2ccc(O)cc2)N2C(=O)CCN(C(=O)NCc3ccccc3)[C@H]2CN1Cc1cccc2ccccc12` [ICG-001]: the SOX9 expression entry in assay [1] is given as “reduced SOX9 expression”.

B1: recombinant WNT3A: recombinant WNT3A used as a Wnt activator (protein, UniProt P56704 19-352, looked up)
Protein Wnt-3a: SYPIWWSLAVGPQYSSLGSQPILCASIPGLVPKQLRFCRNYVEIMPSVAEGIKIGIQECQHQFRGRRWNCTTVHDSLAIFGPVLDKATRESAFVHAIASAGVAFAVTRSCAEGTAAICGCSSRHQGSPGKGWKWGGCSEDIEFGGMVSREFADARENRPDARSAMNRHNNEAGRQAIASHMHLKCKCHGLSGSCEVKTCWWSQPDFRAIGDFLKDKYDSASEMVVEKHRESRGWVETLRPRYTYFKVPTERDLVYYEASPNFCEPNPETGSFGTRDRTCNVSSHGIDGCDLLCCGRGHNARAERRREKCRCVFHWCCYVSCQECTRVYDVHTCK
Consider B1, for which, in assay [2], the “PROM1 enhancer reporter activity, stimulation” value came to 3 fold.
